Values quoted from earlier work, collected in patent US20210154215A1, “Antifungal Cuticle Oil Composition” (Zenvision Pharma LLP, priority 2018, published 2021).

SMILES | Solubility in water | Solubility in ethanol | Solubility in methanol (methanol) | Solubility in methylene chloride (methylene chloride) | Solubility in propylene glycol (propylene glycol)
C=C1CCN([C@H](C)[C@](O)(Cn2cncn2)c2ccc(F)cc2F)CC1 [Efinaconazole, (2R,3R)-2-(2,4-difluorophenyl)-3-(4-methylenepiperidin-1yl)-1-(1H-1,2,4-triazol-1-yl)butan-2ol] | practically insoluble |  |  |  | 
CN(C/C=C/C#CC(C)(C)C)Cc1cccc2ccccc12.Cl [Terbinafine hydrochloride, (E)-N-(6,6-dimethyl-2-hepten-4-ynyl)-N-methyl-1-naphthalenemethanamine hydrochloride] | slightly soluble | soluble | freely soluble | freely soluble | 
OB1OCc2cc(F)ccc21 [Tavaborole, 5-fluoro-1,3-dihydro-1-hydroxy-2,1-benzoxaborole] | slightly soluble | freely soluble |  |  | freely soluble
